Common to all, as to assay type: cell-based
The test system of one test is GTL-16. As to the kind of experiment: Cell proliferation assay, GTL-16 (gastric). The conditions noted are these: Homo sapiens, 72 hours in presence of compound. The procedure: (§1) Seventeen cancer derived cell lines are used (GTL-16, N87, H1975, A549, H69, A2780, PC3, BT474, SKBR3, MCF-7, A375, MV4;11, K562, KM12L4A, H929, OPM-2 and KMS-11) to test the effect of (R)-2-amino-7-[2-(6-methoxy-pyridin-2-yl)-phenyl]-4-methyl-7,8-dihydro-6H-pyrido[4,3-d]pyrimidin-5-one. These cell lines cover the following 9 tumor types: Gastric, Lung, Ovarian, Prostate, Breast, Melanoma, Leukemia, Colon and Multiple myeloma. After division and medium change, cells from stock culture are seeded on cell plates and cultured for about 18 hours to allow cell growth and attachment before starting the assay. Then on the first day of the assay, (R)-2-amino-7-[2-(6-methoxy-pyridin-2-yl)-phenyl]-4-methyl-7,8-dihydro-6H-pyrido[4,3-d]pyrimidin-5-one is added to the medium at various concentrations. Cells are cultured up to 72 or 96 hours and cell proliferation is determined using commercially available cell proliferation kits.
(§2) Table 1 relates to the concentration in nM of (R)-2-amino-7-[2-(6-methoxy-pyridin-2-yl)-phenyl]-4-methyl-7,8-dihydro-6H-pyrido[4,3-d]pyrimidin-5-one which inhibits cell proliferation by 50% (IC50). […]

The next test deals with N87. As to the kind of experiment: Cell proliferation assay, N87 (gastric). As to conditions: 72 hours in presence of compound. Here is the method: as §1, §2
Another test has as its system H69. As to the kind of experiment: Cell proliferation assay, H69 (lung). As to conditions: Homo sapiens, NCI-H69, 72 hours in presence of compound. Here is the method:
as §1, §2

Another test concerns A2780. Description: Cell proliferation assay, A2780 (ovarian). As to conditions: Homo sapiens, 72 hours in presence of compound. The procedure:
as §1, §2

The subject of another test is SKBR3. As to the kind of experiment: Cell proliferation assay, SKBR3 (breast). The conditions noted are these: Homo sapiens, SK-BR-3, 72 hours in presence of compound. Here is the method: as §1, §2
Another test concerns MCF-7. As to the kind of experiment: Cell proliferation assay, MCF-7 (breast). As to conditions: Homo sapiens, MCF7, 72 hours in presence of compound. Here is the method:
as §1, §2

Another test relates to MV4:11. As to the kind of experiment: Cell proliferation assay, MV4:11 (leukemia). The conditions noted are these: Homo sapiens, 72 hours in presence of compound. Here is the method:
as §1, §2

The next test has as its system K562. Description: Cell proliferation assay, K562 (leukemia). The conditions noted are these: Homo sapiens, 72 hours in presence of compound. The procedure:
as §1, §2

The next test deals with H929. Description: Cell proliferation assay, H929 (multiple myeloma). The conditions noted are these: Homo sapiens, NCI-H929, 72 hours in presence of compound. The procedure:
as §1, §2

A further test has as its system KMS-11. Description: Cell proliferation assay, KMS-11 (multiple myeloma). The conditions noted are these: Homo sapiens, 72 hours in presence of compound. Here is the method:
as §1, §2

In a further test the test system is GXF 1172. As to the kind of experiment: Clonogenic assay, GXF 1172. The conditions noted are these: Homo sapiens, Stomach, Signet-ring cell carcinoma, soft agar, read-out: IC50 (colony formation). The procedure: (§3) The anticancer activity of (R)-2-amino-7-[2-(6-methoxy-pyridin-2-yl)-phenyl]-4-methyl-7,8-dihydro-6H-pyrido[4,3-d]pyrimidin-5-one is evaluated in 30 human tumor xenografts in vitro using a clonogenic assay. In this assay, human cells derived from cancer patients are evaluated for the capacity of (R)-2-amino-7-[2-(6-methoxy-pyridin-2-yl)-phenyl]-4-methyl-7,8-dihydro-6H-pyrido[4,3-d]pyrimidin-5-one to inhibit the formation of 3 dimensional colonies. […] The tumor xenografts which have never been cultured in cell culture plastic dishes are isolated from nude mice. Tumor cell suspensions are prepared and incubated in 24 well plates containing layers of soft agar. Under these conditions a special subpopulation of cells selectively grows to colonies. (R)-2-amino-7-[2-(6-methoxy-pyridin-2-yl)-phenyl]-4-methyl-7,8-dihydro-6H-pyrido[4,3-d]pyrimidin-5one is tested in 6 concentrations up to 1000 nM. The tumor test panel comprises 1 to 10 models of 12 different human tumor types, which were bladder cancer, colon, gastric, non small cell lung (adeno, squamous cell, and large cell), small cell lung, mammary, ovary, and prostate cancer, as well as leukemia, lymphoma, melanoma, and sarcoma. Antitumor effects are recorded as inhibition of colony formation in relation to untreated controls. […]

The test system of a further test is LEXF K562. Description: Clonogenic assay, LEXF K562. The conditions noted are these: Homo sapiens, Chronic myelogenous leukemia, soft agar, read-out: IC50 (colony formation). The procedure:
as §3

The next test relates to LXFA 1012. As to the kind of experiment: Clonogenic assay, LXFA 1012. The conditions noted are these: Homo sapiens, Lung, non-small cell, Adenocarcinoma, soft agar, read-out: IC50 (colony formation). The procedure:
as §3

For the next test, the system named is LXFA 526. Description: Clonogenic assay, LXFA 526. As to conditions: Homo sapiens, Lung, non-small cell, Adenocarcinoma, soft agar, read-out: IC50 (colony formation). Here is the method: as §3
In a further test the test system is LXFA 677. As to the kind of experiment: Clonogenic assay, LXFA 677. As to conditions: Homo sapiens, Lung, non-small cell, Adenocarcinoma, soft agar, read-out: IC50 (colony formation). Here is the method: as §3
The next test concerns MAXF 1162. Description: Clonogenic assay, MAXF 1162. The conditions noted are these: Homo sapiens, Breast, invasive ductal carcinoma, soft agar, read-out: IC50 (colony formation). Here is the method:
as §3

A further test concerns MAXF 1384. Description: Clonogenic assay, MAXF 1384. As to conditions: Homo sapiens, Breast, Adenocarcinoma, soft agar, read-out: IC50 (colony formation). The procedure: as §3
The test system of a further test is MAXF 401. Description: Clonogenic assay, MAXF 401. As to conditions: Homo sapiens, MAXF401, Breast, Pap. adenocarcinoma, soft agar, read-out: IC50 (colony formation). The procedure:
as §3

The test system of another test is MEXF 462. As to the kind of experiment: Clonogenic assay, MEXF 462. The conditions noted are these: Homo sapiens, Amelanotic melanoma, soft agar, read-out: IC50 (colony formation). Here is the method: as §3
A further test concerns PRXF 22RV1. As to the kind of experiment: Clonogenic assay, PRXF 22RV1. As to conditions: Homo sapiens, Prostate carcinoma, soft agar, read-out: IC50 (colony formation). Here is the method:
as §3

The next test concerns SXF 1301. As to the kind of experiment: Clonogenic assay, SXF 1301. As to conditions: Homo sapiens, Sarcoma, Malignant rhabdomyosarcoma, soft agar, read-out: IC50 (colony formation). Here is the method: as §3
For the next test, the system named is SXF 463. As to the kind of experiment: Clonogenic assay, SXF 463. The conditions noted are these: Homo sapiens, Sarcoma, Rhabdomyosarcoma, soft agar, read-out: IC50 (colony formation). The procedure: as §3

One may read the GI50 as the concentration at which growth is held to half of that of the control. For orientation: IC50 means the point on the concentration scale where inhibition reaches its midpoint. `COc1cccc(-c2ccccc2[C@H]2Cc3nc(N)nc(C)c3C(=O)N2)n1` [(R)-2-amino-7-[2-(6-methoxy-pyridin-2-yl)-phenyl]-4-methyl-7,8-dihydro-6H-pyrido[4,3-d]pyrimidin-5-one]: the GI50 was 18 nM in the test with GTL-16; 12 nM in the test with N87; 37 nM with H69; 27 nM in the test with A2780; 18 nM in the test on SKBR3; 8 nM in the test on MCF-7. In addition, the concentration for 50% growth inhibition (GI50) with MV4:11 amounted to 4 nM; in the test on K562, 24 nM; in the test on H929, 20 nM; in the test with KMS-11, 7 nM. Moreover, the IC50 in the test on GXF 1172 is 43 nM; in the test with LEXF K562, 13 nM; with LXFA 1012, more than 1000 nM; in the test on LXFA 526, 36 nM; with LXFA 677, 27 nM; in the test on MAXF 1162 it was 6 nM. Besides, the half-inhibitory concentration (IC50) in the test on MAXF 1384 amounted to 14 nM; with MAXF 401, 15 nM; in the test on MEXF 462 it was 65 nM; in the test with PRXF 22RV1 it was 23 nM; in the test on SXF 1301 it was 26 nM; in the test with SXF 463, 5 nM.
